In ChEMBL document CHEMBL1201862, “PubChem BioAssay data set” (2004):
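Test compounds were applied to cells in 96-well plates for 48 hours at 5 doses. GI50 is the concentration that inhibits growth by half.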 Active and inactive are the calls of the source. Rule as the data show it: active = GI50 up to about 1.1 µM and inactive = higher.

What was measured:
Assay in all cases: NCI-60 cell line screen, 48 h
COLO 205 = system: COLO 205
KM12 = system: KM12
SF-295 = system: SF-295
PC-3 = system: PC-3
SN12C = system: SN12C
SK-MEL-28 = system: SK-MEL-28
UACC-62 = system: UACC-62
786-0 = system: 786-0
T47D = system: T47D
ACHN = system: ACHN
SK-MEL-5 = system: SK-MEL-5
UACC-257 = system: UACC-257
NCI/ADR-RES = system: NCI/ADR-RES
SR = system: SR
RXF 393 = system: RXF 393
MDA-N = system: MDA-N
MCF7 = system: MCF7
UO-31 = system: UO-31
EKVX = system: EKVX
OVCAR-4 = system: OVCAR-4
HOP-62 = system: HOP-62
A498 = system: A498
SK-MEL-2 = system: SK-MEL-2
MDA-MB-231 = system: MDA-MB-231
OVCAR-8 = system: OVCAR-8
SW-620 = system: SW-620
HOP-92 = system: HOP-92
SF-539 = system: SF-539
SK-OV-3 = system: SK-OV-3
Hs-578T = system: Hs-578T
HCT-116 = system: HCT-116
A549 = system: A549
MDA-MB-435 = system: MDA-MB-435
TK-10 = system: TK-10
M14 = system: M14
HCC 2998 = system: HCC 2998
NCI-H460 = system: NCI-H460
HT-29 = system: HT-29
NCI-H23 = system: NCI-H23
MOLT-4 = system: MOLT-4
RPMI-8226 = system: RPMI-8226
U-251 = system: U-251
DU-145 = system: DU-145
OVCAR-3 = system: OVCAR-3
OVCAR-5 = system: OVCAR-5
LOX IMVI = system: LOX IMVI
IGROV-1 = system: IGROV-1
HL-60 = system: HL-60
SF-268 = system: SF-268
Malme-3M = system: Malme-3M
NCI-H522 = system: NCI-H522
BT-549 = system: BT-549
SNB-19 = system: SNB-19
CAKI-1 = system: CAKI-1
HCT-15 = system: HCT-15

## COc1cc(Cn2c3c(c4cc(O)ccc42)C(=O)c2ccccc2C3=O)cc(OC)c1
COLO 205
  GI50: 12.6 µM (inactive)
KM12
  GI50: 2.43 µM (inactive)
SF-295
  GI50: 6.85 µM (inactive)
PC-3
  GI50: 2.46 µM (inactive)
SN12C
  GI50: 5.09 µM (inactive)
SK-MEL-28
  GI50: 7.96 µM (inactive)
UACC-62
  GI50: 2.04 µM (inactive)
786-0
  GI50: 2.37 µM (inactive)
T47D
  GI50: 6.35 µM (inactive)
ACHN
  GI50: 1.61 µM (inactive)
SK-MEL-5
  GI50: 4.29 µM (inactive)
UACC-257
  GI50: 39.2 µM (inactive)
NCI/ADR-RES
  GI50: 6 µM (inactive)
SR
  GI50: 0.494 µM (active)
RXF 393
  GI50: 3.92 µM (inactive)
MDA-N
  GI50: 1.49 µM (inactive)
MCF7
  GI50: 12.2 µM (inactive)
UO-31
  GI50: 4.32 µM (inactive)
EKVX
  GI50: 15.3 µM (inactive)
OVCAR-4
  GI50: 4.86 µM (inactive)
HOP-62
  GI50: 2.77 µM (inactive)
A498
  GI50: 15.4 µM (inactive)
SK-MEL-2
  GI50: 14.7 µM (inactive)
MDA-MB-231
  GI50: 5.32 µM (inactive)
OVCAR-8
  GI50: 3.55 µM (inactive)
SW-620
  GI50: 16.7 µM (inactive)
HOP-92
  GI50: 1.85 µM (inactive)
SF-539
  GI50: 2.05 µM (inactive)
SK-OV-3
  GI50: 2.32 µM (inactive)
Hs-578T
  GI50: 11 µM (inactive)
HCT-116
  GI50: 0.881 µM (active)
A549
  GI50: 10.5 µM (inactive)
MDA-MB-435
  GI50: 0.743 µM (active)
TK-10
  GI50: 11.6 µM (inactive)
M14
  GI50: 16.3 µM (inactive)
HCC 2998
  GI50: 6.19 µM (inactive)
NCI-H460
  GI50: 5.61 µM (inactive)
HT-29
  GI50: 4.1 µM (inactive)
NCI-H23
  GI50: 8.57 µM (inactive)
MOLT-4
  GI50: 16.3 µM (inactive)
RPMI-8226
  GI50: 0.337 µM (active)
U-251
  GI50: 3.6 µM (inactive)
DU-145
  GI50: 10.8 µM (inactive)
OVCAR-3
  GI50: 20.6 µM (inactive)
OVCAR-5
  GI50: 9.23 µM (inactive)
LOX IMVI
  GI50: 31.7 µM (inactive)
IGROV-1
  GI50: 2.11 µM (inactive)
HL-60
  GI50: 13.7 µM (inactive)
SF-268
  GI50: 2.88 µM (inactive)
Malme-3M
  GI50: 8.22 µM (inactive)
NCI-H522
  GI50: 2.43 µM (inactive)
BT-549
  GI50: 1.82 µM (inactive)
SNB-19
  GI50: 4.5 µM (inactive)
CAKI-1
  GI50: 15.2 µM (inactive)
HCT-15
  GI50: 11.7 µM
